Measurements from ChEMBL document CHEMBL6071181, “Discovery of ZLC491 as a Potent, Selective, and Orally Bioavailable CDK12/13 PROTAC Degrader” (J Med Chem, 2024).
Calls of active or inactive are those of the source. The rule behind the calls is not given here.

Key:
[1] = molecular target: T1, Protein cereblon/Cyclin-dependent kinase 12 (Homo sapiens) (UniProt Q9NYV4+Q96SW2); experiment: PROTAC activity at CRBN/CDK12 in human MDA-MB-231 cells assessed as induction of CDK12 degradation incubated for 15 hrs by immunoblotting analysis; assay type: cell-based
[2] = molecular target: T1, Protein cereblon/Cyclin-dependent kinase 12 (Homo sapiens); experiment: PROTAC activity at CRBN/CDK12 in human MDA-MB-231 cells assessed as induction of CDK12 degradation at 1 uM by immunoblotting analysis; assay type: cell-based; conditions: time <= 24.0 hrs, TDE = time-dependent effect
[3] = molecular target: T2, Protein cereblon/Cyclin-dependent kinase 13 (Homo sapiens) (UniProt Q14004+Q96SW2); experiment: PROTAC activity at CRBN/CDK13 in human MDA-MB-231 cells assessed as induction of CDK13 degradation at 1 uM by immunoblotting analysis; assay type: cell-based; conditions: time <= 24.0 hrs, TDE = time-dependent effect
[4] = molecular target: T1, Protein cereblon/Cyclin-dependent kinase 12 (Homo sapiens); experiment: PROTAC activity at CRBN/CDK12 in human HCC38 cells assessed as induction of CDK12 degradation incubated for 15 hrs by immunoblotting analysis; assay type: cell-based; conditions: dose 0.01-3 µM
[5] = molecular target: T2, Protein cereblon/Cyclin-dependent kinase 13 (Homo sapiens); experiment: PROTAC activity at CRBN/CDK13 in human HCC38 cells assessed as induction of CDK13 degradation incubated for 15 hrs by immunoblotting analysis; assay type: cell-based; conditions: dose 0.01-3 µM
[6] = molecular target: T2, Protein cereblon/Cyclin-dependent kinase 13 (Homo sapiens); experiment: PROTAC activity at CRBN/CDK13 in human MDA-MB-436 cells assessed as induction of CDK13 degradation incubated for 15 hrs by immunoblotting analysis; assay type: cell-based; conditions: dose 0.01-3 µM
[7] = molecular target: T2, Protein cereblon/Cyclin-dependent kinase 13 (Homo sapiens); experiment: PROTAC activity at CRBN/CDK13 in human MDA-MB-231 cells assessed as induction of CDK13 degradation at 1 uM pretreated with MG132 followed by compound addition and measured after 10 hrs by immunoblotting analysis; assay type: cell-based
[8] = molecular target: T1, Protein cereblon/Cyclin-dependent kinase 12 (Homo sapiens); experiment: PROTAC activity at CRBN/CDK12 in human MDA-MB-231 cells assessed as induction of CDK12 degradation at 1 uM pretreated with MLN4924 followed by compound addition and measured after 10 hrs by immunoblotting analysis; assay type: cell-based
[9] = molecular target: T1, Protein cereblon/Cyclin-dependent kinase 12 (Homo sapiens); experiment: PROTAC activity at CRBN/CDK12 in human MDA-MB-231 cells assessed as induction of CDK12 degradation at 1 uM pretreated with bafilomycin followed by compound addition and measured after 10 hrs by immunoblotting analysis; assay type: cell-based
[10] = molecular target: T1, Protein cereblon/Cyclin-dependent kinase 12 (Homo sapiens); experiment: PROTAC activity at CRBN/CDK12 in human MDA-MB-231 cells assessed as induction of CDK12 degradation at 1 uM pretreated with 3-benzyl-1-((1r,4r)-4-((5-cyanopyridin-2-yl)amino)cyclohexyl)-1-(4-(piperazin-1-yl)phenyl)urea followed by compound addition and measured after 10 hrs by immunoblotting analysis; assay type: cell-based
[11] = molecular target: T2, Protein cereblon/Cyclin-dependent kinase 13 (Homo sapiens); experiment: PROTAC activity at CRBN/CDK13 in human MDA-MB-231 cells assessed as induction of CDK13 degradation at 1 uM pretreated with 3-benzyl-1-((1r,4r)-4-((5-cyanopyridin-2-yl)amino)cyclohexyl)-1-(4-(piperazin-1-yl)phenyl)urea followed by compound addition and measured after 10 hrs by immunoblotting analysis; assay type: cell-based
[12] = molecular target: T1, Protein cereblon/Cyclin-dependent kinase 12 (Homo sapiens); experiment: PROTAC activity at CRBN/CDK12 in human MDA-MB-231 cells assessed as induction of CDK12 degradation at 2 uM incubated for 8 hrs by global proteomic analysis; assay type: cell-based
[13] = test system: MDA-MB-231; experiment: Induction of CCNK degradation in human MDA-MB-231 cells at 2 uM incubated for 8 hrs by global proteomic analysis; assay type: cell-based
[14] = test system: MDA-MB-231; experiment: Downregulation of ATM mRNA expression in human MDA-MB-231 cells incubated for 12 hrs by RT-qPCR analysis; assay type: functional, cell-based; conditions: dose 60-300 nM
[15] = test system: MDA-MB-231; experiment: Downregulation of BRCA1 mRNA expression in human MDA-MB-231 cells incubated for 12 hrs by RT-qPCR analysis; assay type: functional, cell-based; conditions: dose 60-300 nM
[16] = test system: MDA-MB-231; experiment: Downregulation of BRCA2 mRNA expression in human MDA-MB-231 cells incubated for 12 hrs by RT-qPCR analysis; assay type: functional, cell-based; conditions: dose 60-300 nM
[17] = test system: MDA-MB-231; experiment: Downregulation of FANCD2 mRNA expression in human MDA-MB-231 cells incubated for 12 hrs by RT-qPCR analysis; assay type: functional, cell-based; conditions: dose 60-300 nM
[18] = test system: MDA-MB-231; experiment: Downregulation of RAD51 protein level in human MDA-MB-231 cells at 0.1 to 0.5 uM incubated for 48 hrs by immunoblotting analysis; assay type: functional, cell-based; conditions: dose 0.1-0.5 µM
[19] = test system: MDA-MB-231; experiment: Downregulation of BRCA1 protein level in human MDA-MB-231 cells at 0.1 to 0.5 uM incubated for 48 hrs by immunoblotting analysis; assay type: functional, cell-based; conditions: dose 0.1-0.5 µM
[20] = Antiproliferative activity against human MCF-10A cells assessed as inhibition of cell growth incubated for 5 days by CCK8 assay; assay type: toxicity, cell-based
[21] = Antiproliferative activity against HEK293 cells assessed as inhibition of cell growth incubated for 5 days by CCK8 assay; assay type: toxicity, cell-based; conditions: human
[22] = test system: MDA-MB-231; experiment: Synergistic antiproliferative activity against human MDA-MB-231 cells assessed as inhibition of cell growth at 0.3 to 7.5 uM incubated for 5 days in presence of cisplatin by CCK8 assay; assay type: functional, cell-based; conditions: dose 0.3-7.5 µM, time 5.0 day
[23] = test system: MDA-MB-231; experiment: Synergistic antiproliferative activity against human MDA-MB-231 cells assessed as inhibition of cell growth at 0.3 to 7.5 uM incubated for 5 days in presence of olaparib by CCK8 assay; assay type: functional, cell-based; conditions: dose 0.3-7.5 µM, time 5.0 day
[24] = test system: MDA-MB-231; experiment: Synergistic antiproliferative activity against human MDA-MB-231 cells assessed as combination index at 0.3 uM incubated for 5 days in presence of cisplatin by CCK8 assay; assay type: functional; conditions: time 5 day
[25] = test system: MDA-MB-231; experiment: Synergistic antiproliferative activity against human MDA-MB-231 cells assessed as combination index at 7.5 uM incubated for 5 days in presence of cisplatin by CCK8 assay; assay type: functional; conditions: time 5 day
[26] = test system: MDA-MB-231; experiment: Synergistic antiproliferative activity against human MDA-MB-231 cells assessed as combination index at 1.5 uM incubated for 5 days in presence of olaparib by CCK8 assay; assay type: functional; conditions: time 5 day
[27] = test system: MDA-MB-231; experiment: Synergistic antiproliferative activity against human MDA-MB-231 cells assessed as combination index at 7.5 uM incubated for 5 days in presence of olaparib by CCK8 assay; assay type: functional; conditions: time 5 day
[28] = molecular target: T1, Protein cereblon/Cyclin-dependent kinase 12 (Homo sapiens); experiment: In vivo PROTAC activity at CRBN/CDK12 in female CB17SCID mouse model xenografted with human MDA-MB-231 cells assessed as reduction in CDK12 protein expression in tumor at 100 to 200 mg/kg, po administered for 5 days by immunoblotting analysis; assay type: functional, organism-based; conditions: dose 100-200 mg/kg, time 5.0 day
[29] = molecular target: T2, Protein cereblon/Cyclin-dependent kinase 13 (Homo sapiens); experiment: In vivo PROTAC activity at CRBN/CDK13 in female CB17SCID mouse model xenografted with human MDA-MB-231 cells assessed as reduction in CDK13 protein expression in tumor at 100 to 200 mg/kg, po administered for 5 days by immunoblotting analysis; assay type: functional, organism-based; conditions: dose 100-200 mg/kg, time 5.0 day
[30] = test system: MDA-MB-231; experiment: Antiproliferative activity against human MDA-MB-231 cells xenografted in female CB17SCID mouse model assessed as increase in TUNEL signaling in tumor at 200 mg/kg, po administered for 5 days by TUNEL staining based immunohistochemical analysis; assay type: functional, organism-based; conditions: time 5.0 day
[31] = Toxicity in female CB17SCID mouse model xenografted with human MDA-MB-231 cells assessed as body weight loss at 100 to 200 mg/kg, po administered for 5 days; assay type: organism-based; conditions: in vivo, 120 h, dose 100-200 mg/kg, time 5 day

T2 sequence (Q14004 whole entry, looked up): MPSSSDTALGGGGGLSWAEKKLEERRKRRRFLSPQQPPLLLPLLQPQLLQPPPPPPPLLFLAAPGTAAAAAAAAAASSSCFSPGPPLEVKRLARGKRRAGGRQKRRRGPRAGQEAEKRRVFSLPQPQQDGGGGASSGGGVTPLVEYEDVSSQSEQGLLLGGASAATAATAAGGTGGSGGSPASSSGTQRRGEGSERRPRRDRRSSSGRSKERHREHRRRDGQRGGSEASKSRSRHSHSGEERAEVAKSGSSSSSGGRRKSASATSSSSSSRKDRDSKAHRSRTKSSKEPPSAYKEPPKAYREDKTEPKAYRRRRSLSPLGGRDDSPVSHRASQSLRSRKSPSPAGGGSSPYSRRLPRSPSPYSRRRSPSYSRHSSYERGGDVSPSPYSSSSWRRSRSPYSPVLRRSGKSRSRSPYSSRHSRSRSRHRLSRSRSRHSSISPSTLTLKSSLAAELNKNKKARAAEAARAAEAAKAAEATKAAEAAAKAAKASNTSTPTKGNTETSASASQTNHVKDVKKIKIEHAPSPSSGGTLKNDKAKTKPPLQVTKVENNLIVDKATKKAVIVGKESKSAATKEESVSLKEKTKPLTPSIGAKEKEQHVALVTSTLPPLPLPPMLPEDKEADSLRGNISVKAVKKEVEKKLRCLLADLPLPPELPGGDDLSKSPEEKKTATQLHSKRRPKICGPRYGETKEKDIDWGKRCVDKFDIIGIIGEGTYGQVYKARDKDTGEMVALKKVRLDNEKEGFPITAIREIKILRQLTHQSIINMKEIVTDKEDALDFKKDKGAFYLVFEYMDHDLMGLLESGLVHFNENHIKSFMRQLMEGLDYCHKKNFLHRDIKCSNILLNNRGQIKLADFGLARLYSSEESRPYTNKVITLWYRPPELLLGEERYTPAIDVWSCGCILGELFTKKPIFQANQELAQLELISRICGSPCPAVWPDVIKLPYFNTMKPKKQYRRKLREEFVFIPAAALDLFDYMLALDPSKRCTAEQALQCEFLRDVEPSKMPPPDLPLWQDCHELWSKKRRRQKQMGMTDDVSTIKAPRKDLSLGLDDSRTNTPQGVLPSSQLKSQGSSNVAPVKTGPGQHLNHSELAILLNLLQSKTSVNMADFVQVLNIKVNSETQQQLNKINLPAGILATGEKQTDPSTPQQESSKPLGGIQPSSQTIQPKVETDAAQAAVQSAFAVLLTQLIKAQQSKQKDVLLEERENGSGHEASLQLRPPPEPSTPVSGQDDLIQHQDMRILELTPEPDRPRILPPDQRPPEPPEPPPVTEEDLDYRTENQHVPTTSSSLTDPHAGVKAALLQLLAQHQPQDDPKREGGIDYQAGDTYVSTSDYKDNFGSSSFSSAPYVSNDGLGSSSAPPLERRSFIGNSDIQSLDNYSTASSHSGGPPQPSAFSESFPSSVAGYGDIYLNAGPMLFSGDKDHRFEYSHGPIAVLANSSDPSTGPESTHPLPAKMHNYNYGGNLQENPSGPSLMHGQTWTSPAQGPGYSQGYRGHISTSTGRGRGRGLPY
T2 sequence (Q96SW2 whole entry, looked up): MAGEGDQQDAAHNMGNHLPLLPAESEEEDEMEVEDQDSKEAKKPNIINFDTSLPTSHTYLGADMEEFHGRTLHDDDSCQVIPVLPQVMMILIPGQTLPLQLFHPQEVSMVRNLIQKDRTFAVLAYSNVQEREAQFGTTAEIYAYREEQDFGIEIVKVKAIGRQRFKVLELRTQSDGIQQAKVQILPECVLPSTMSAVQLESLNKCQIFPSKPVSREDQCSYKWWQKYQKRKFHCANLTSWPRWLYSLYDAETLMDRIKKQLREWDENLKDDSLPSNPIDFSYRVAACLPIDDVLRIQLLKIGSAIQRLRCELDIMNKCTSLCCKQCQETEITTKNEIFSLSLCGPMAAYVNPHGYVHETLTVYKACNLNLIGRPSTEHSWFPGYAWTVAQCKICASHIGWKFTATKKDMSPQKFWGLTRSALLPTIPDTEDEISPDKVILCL
T1 sequence (Q96SW2 whole entry, looked up): as above
T1 sequence (Q9NYV4 whole entry, looked up): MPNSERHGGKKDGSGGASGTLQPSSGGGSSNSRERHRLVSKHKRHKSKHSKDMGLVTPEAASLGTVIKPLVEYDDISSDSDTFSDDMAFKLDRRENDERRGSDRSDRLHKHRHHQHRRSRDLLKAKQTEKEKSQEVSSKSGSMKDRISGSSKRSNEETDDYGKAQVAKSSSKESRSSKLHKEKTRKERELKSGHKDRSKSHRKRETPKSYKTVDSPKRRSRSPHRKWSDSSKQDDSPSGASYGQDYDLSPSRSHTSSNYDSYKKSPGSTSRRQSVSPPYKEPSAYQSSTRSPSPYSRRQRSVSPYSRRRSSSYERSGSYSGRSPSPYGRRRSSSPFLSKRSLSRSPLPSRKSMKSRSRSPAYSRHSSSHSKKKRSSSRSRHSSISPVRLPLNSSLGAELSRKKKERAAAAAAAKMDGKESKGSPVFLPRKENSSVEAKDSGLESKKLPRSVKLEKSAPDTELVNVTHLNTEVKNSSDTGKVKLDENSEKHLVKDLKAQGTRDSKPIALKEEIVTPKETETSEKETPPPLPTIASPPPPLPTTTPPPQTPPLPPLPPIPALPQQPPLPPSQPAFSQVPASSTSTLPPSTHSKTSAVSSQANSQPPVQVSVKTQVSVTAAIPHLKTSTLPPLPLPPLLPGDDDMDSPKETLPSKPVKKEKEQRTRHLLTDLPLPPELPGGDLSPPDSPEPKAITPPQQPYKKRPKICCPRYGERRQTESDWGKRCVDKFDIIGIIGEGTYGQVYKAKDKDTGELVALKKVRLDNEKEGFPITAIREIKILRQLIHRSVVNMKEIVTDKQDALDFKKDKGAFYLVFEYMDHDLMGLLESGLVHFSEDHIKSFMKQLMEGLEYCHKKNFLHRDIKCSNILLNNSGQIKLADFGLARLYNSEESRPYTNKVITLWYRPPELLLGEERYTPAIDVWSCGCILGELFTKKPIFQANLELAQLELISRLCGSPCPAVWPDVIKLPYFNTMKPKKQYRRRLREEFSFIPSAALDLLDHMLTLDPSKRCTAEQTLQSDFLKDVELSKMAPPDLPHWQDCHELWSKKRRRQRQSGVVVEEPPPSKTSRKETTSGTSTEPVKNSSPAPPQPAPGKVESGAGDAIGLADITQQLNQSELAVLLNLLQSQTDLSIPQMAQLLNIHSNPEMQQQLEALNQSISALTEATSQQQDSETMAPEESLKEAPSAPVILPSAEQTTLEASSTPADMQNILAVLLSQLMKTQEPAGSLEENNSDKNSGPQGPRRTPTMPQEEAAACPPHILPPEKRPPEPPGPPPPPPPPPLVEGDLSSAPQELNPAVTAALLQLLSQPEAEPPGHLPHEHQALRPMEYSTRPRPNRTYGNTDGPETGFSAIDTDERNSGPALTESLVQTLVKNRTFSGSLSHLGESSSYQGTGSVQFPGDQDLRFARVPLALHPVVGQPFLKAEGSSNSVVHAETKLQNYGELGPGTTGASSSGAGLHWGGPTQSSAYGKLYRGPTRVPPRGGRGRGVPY

In the case of `N#Cc1ccc(N[C@H]2CC[C@H](N(C(=O)NCc3ccccc3)c3ccc(N4CCN(C5CCN(c6cc7c(cc6F)C(=O)N(C6CCC(=O)NC6=O)C7=O)CC5)CC4)cc3)CC2)nc1` (stereo partly specified), the Activity [1] is reported as “Dose-Dependent Effect”, the Activity [2] is reported as “Tde” and the Activity [3] is reported as “Tde”. For the same compound, the Activity [4] was “Dose-Dependent Effect”, the Activity [5] was “Dose-Dependent Effect” and the Activity [6] was “Dose-Dependent Effect”. For the same compound, the Activity [7] was “inactive”, the Activity [8] was “inactive” and the Activity [9] was “Active”. For the same compound, the Activity [10] was “inactive”, the Activity [11] was “inactive” and the Activity [12] was “Active”. The Activity [13] was “Active”, the Activity [14] was “Dose-Dependent Effect” and the Activity [15] was “Dose-Dependent Effect”. The Activity [16] was “Dose-Dependent Effect”, the Activity [17] was “Dose-Dependent Effect” and the Activity [18] was “Active”. For the same compound, the Activity [19] was “Active”, the IC50 at 5 days [20] was > 10 µM and the IC50 at 5 days [21] was > 10 µM. For the same compound, the Activity [22] was “Active”, the Activity [23] was “Active” and the CI [24] was >1. For the same compound, the CI [25] was 0.07, the CI [26] was 0.9 and the CI [27] was 0.85. For the same compound, the Activity [28] was “Active”, the Activity [29] was “Active” and the Activity [30] was “Active”. For the same compound, the Activity [31] was “Non-Toxic”.
